Tests used:
EGFR = EGFR (Homo sapiens, UniProt P00533); experiment: EGFR kinase assay (PGT-coated 96-well plates); type: biochemical; conditions: read-out: IC50 (nM) ± SEM EGFR
Description: The EGFR kinase assay was carried out in 96-well plates coated with PGT (poly l-glutamic acid l-tyrosine, 4:1, Sigma Aldrich, St. Louis, MO) as previously described. IC50 values were calculated using GraphPad Prism 5. Each experiment was carried out at least three times. The VEGFR-2 kinase assay was carried out in 96-well streptavidin coated plate using recombinant human VEGFR-2/KDR ELISA kit according to manufacturer’s instructions.

[1] = system: BT-549 breast cancer cells; experiment: Anti-proliferative MTT assay; type: cell-based; conditions: Homo sapiens, 24 h, read-out: % Growth inhibition ± SEM BT-549
Description: (§1) To evaluate the anti-proliferative activity of the synthesised thiazolyl-pyrazoline derivatives (7a–7d, 10a–10d, and 13a–13f), a preliminary in vitro one dose (10 µM) anticancer assay was performed. Nine cell lines derived from five tumour subpanels were examined; leukaemia (K562 and KG-1a), breast (MCF-7, BT-549 and HCC70), lung (A549 and H441), colon (HCT116) and liver (HepG2) cancer cell lines. The compounds were added at a single concentration (10 µM) and the cultures were incubated for 24 h, then the per cent growth inhibition (%GI) was calculated.
(§2) Human leukaemia (K562 and KG-1a), breast (MCF-7, BT-549 and HCC70), lung (A549, H441, NCI-H1650 and NCI-H1975), colon (HCT116), liver (HepG2) cancer cell lines and WI-38 human lung fibroblast cell line were obtained from the American Type Culture Collection (ATCC; Manassas, VA) and were cultured in their suitable media containing 10% foetal bovine serum (FBS; Sigma-Aldrich) in a humidified atmosphere with 5% CO2 at 37 °C. Gefitinib and vandetanib were purchased from Sigma-Aldrich. All chemicals used in this study were analytical or cell-culture grade.
(§3) Cytotoxicity was measured using the MTT assay. Human leukaemia (K562 and KG-1a), breast (MCF-7, BT-549 and HCC70), lung (A549, H441, NCI-H1650 and NCI-H1975), colon (HCT116), liver (HepG2) cancer cell lines and WI-38 human lung fibroblast cell line were plated at a density of 1 × 10^4 cells per well in 96-well plates overnight and then treated with the compounds. After 24 h treatment, 20 μL of MTT solution (2 mg/mL in phosphate-buffered saline [PBS]) was added to each well and the cells were cultured for another 4 h at 37 °C. The medium was aspirated and 150 μL DMSO was added to solubilise MTT formazan crystals. The plates were then shaken, and the optical density was determined at 570 nm using an ELISA plate reader (Model 550, Bio-Rad, Hercules, CA). At least three independent experiments were performed. The IC50 values were calculated using GraphPad Prism 5 (Version 5.01, GraphPad Software, San Diego, CA).

[2] = system: HCC70 breast cancer cells; experiment: Anti-proliferative MTT assay; type: cell-based; conditions: Homo sapiens, 24 h, read-out: % Growth inhibition ± SEM HCC70
Description: as §1, §2, §3

[3] = system: HCT116 colon cancer cells; experiment: Anti-proliferative MTT assay; type: cell-based; conditions: Homo sapiens, HCT-116, 24 h, read-out: % Growth inhibition ± SEM HCT116
Description: as §1, §2, §3

HepG2 liver cancer cells = experiment: Anti-proliferative MTT assay; type: cell-based; conditions: Homo sapiens, 24 h, read-out: % Growth inhibition ± SEM HepG2
Description: as §1, §2, §3

K562 leukaemia cells = experiment: Anti-proliferative MTT assay; type: cell-based; conditions: Homo sapiens, 24 h, read-out: % Growth inhibition ± SEM K562
Description: as §1, §2, §3

KG-1a leukaemia cells = experiment: Anti-proliferative MTT assay; type: cell-based; conditions: Homo sapiens, 24 h, read-out: % Growth inhibition ± SEM KG-1a
Description: as §1, §2, §3

[4] = system: MCF-7 breast cancer cells; experiment: Anti-proliferative MTT assay; type: cell-based; conditions: Homo sapiens, MCF7, 24 h, read-out: % Growth inhibition ± SEM MCF-7
Description: as §1, §2, §3

A549 lung cancer cells = experiment: Anti-proliferative MTT assay; conditions: Homo sapiens, A549, 24 h; for inhibition at 10 µM: read-out: % Growth inhibition ± SEM A549; for IC50: read-out: IC50 (µM) ± SEM A549
Description: Cytotoxicity was measured using the MTT assay. […] The medium was aspirated and 150 μL DMSO was added to solubilise MTT formazan crystals. The plates were then shaken, and the optical density was determined at 570 nm using an ELISA plate reader (Model 550, Bio-Rad, Hercules, CA). At least three independent experiments were performed.

LCK = LCK (Homo sapiens, UniProt P06239); experiment: Kinase selectivity profiling, Z'-LYTE FRET
LCK, sequence (P06239 whole entry): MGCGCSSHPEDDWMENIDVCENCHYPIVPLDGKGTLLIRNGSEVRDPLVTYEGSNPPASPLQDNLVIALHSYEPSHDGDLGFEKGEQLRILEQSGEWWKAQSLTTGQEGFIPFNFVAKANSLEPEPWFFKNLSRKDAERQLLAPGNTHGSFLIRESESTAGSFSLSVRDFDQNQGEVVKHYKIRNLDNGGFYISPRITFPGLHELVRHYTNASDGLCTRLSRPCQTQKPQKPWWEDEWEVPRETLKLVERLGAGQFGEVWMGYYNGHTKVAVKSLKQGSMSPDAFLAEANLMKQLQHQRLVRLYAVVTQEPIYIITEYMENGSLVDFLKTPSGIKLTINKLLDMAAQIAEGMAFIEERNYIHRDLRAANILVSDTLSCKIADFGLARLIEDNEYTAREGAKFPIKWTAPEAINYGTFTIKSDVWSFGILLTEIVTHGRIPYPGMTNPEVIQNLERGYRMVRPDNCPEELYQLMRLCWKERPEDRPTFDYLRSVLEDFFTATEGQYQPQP

EGFR, sequence (P00533 25-1210): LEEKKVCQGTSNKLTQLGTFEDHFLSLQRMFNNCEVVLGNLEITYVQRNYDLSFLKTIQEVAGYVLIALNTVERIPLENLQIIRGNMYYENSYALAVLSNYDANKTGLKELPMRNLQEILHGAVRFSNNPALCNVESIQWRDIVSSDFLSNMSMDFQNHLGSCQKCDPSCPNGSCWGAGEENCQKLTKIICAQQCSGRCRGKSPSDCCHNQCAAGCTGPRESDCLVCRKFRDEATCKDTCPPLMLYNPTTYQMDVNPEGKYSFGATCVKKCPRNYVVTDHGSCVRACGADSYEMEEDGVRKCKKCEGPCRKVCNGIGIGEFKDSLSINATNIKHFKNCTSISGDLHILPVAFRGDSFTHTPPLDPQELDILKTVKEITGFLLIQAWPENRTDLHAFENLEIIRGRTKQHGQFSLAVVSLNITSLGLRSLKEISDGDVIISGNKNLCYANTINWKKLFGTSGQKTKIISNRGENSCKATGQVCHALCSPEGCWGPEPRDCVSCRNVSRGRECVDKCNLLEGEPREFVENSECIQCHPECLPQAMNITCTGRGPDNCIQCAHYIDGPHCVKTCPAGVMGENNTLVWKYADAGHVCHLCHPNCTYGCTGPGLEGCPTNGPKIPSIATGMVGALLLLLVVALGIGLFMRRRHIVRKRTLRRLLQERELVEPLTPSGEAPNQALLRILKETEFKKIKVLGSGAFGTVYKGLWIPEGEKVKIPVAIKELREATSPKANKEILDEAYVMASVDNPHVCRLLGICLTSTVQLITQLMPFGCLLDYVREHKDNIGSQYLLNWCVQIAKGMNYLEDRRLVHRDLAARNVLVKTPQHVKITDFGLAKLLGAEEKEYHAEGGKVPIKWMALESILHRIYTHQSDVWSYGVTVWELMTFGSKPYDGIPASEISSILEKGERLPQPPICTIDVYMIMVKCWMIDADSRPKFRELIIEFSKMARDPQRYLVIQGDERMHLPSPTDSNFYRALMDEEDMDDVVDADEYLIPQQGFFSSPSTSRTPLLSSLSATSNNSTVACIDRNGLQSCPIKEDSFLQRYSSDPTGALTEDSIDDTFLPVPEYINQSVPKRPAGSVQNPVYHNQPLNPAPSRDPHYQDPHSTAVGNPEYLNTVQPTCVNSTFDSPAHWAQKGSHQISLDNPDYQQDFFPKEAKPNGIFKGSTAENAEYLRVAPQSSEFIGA

SMILES | IC50 (EGFR) | inhibition at 10 µM [1] | inhibition at 10 µM [2] | inhibition at 10 µM [3] | inhibition at 10 µM (HepG2 liver cancer cells) | inhibition at 10 µM (K562 leukaemia cells) | inhibition at 10 µM (KG-1a leukaemia cells) | inhibition at 10 µM [4] | inhibition at 10 µM (A549 lung cancer cells) | IC50 (A549 lung cancer cells) | IC50 (LCK)
CCOC(=O)c1sc(N2N=C(c3ccc(Cl)cc3Cl)CC2c2ccc(OC)cc2)nc1C (stereo not shown) [Compound 10b, Ethyl-2-(3-(2,4-dichlorophenyl)-5-(4-methoxyphenyl)-4,5-dihydro-1H-pyrazol-1-yl)-4-methylthiazole-5-carboxylate] | 40.7 ± 1 nM | 47.2 ± 4.9% | 41.5 ± 2.1% | 37.7 ± 3.9% | 50.6 ± 2.2% | 54.2 ± 3.8% | 31 ± 2.5% | 48.5 ± 2.3% | 88.3 ± 4.9% | 4.2 ± 0.8 µM | > 2000 nM
COc1ccc(C2CC(c3ccc(Cl)cc3Cl)=NN2c2nc(C)c(C(=O)Nc3ccccc3)s2)cc1OC (stereo not shown) [Compound 10d, 2-(3-(2,4-Dichlorophenyl)-5-(3,4-dimethoxyphenyl)-4,5-dihydro-1H-pyrazol-1-yl)-4-methyl-N-phenylthiazole-5-carboxamide] | 32.5 ± 2.2 nM | 40.1 ± 2% | 54.1 ± 2.8% | 56.5 ± 2% | 65.5 ± 3.9% | 60.2 ± 2.3% | 57.2 ± 3.4% | 60.9 ± 4.3% | 95.3 ± 5.3% | 2.9 ± 0.2 µM | > 2000 nM
